Measured values: ChEMBL document CHEMBL4619738, “Ansamycin derivatives from the marine-derived Streptomyces sp. SCSGAA 0027 and their cytotoxic and antiviral activities” (Bioorg Med Chem Lett, 2020)
Converted amounts (≈) assume the structure as drawn.

Key:
[1] = system: Shewanella oneidensis; test: Antibacterial activity against Shewanella oneidensis MR-1; assay type: functional
[2] = system: HL-60; test: cells; details: Homo sapiens
Description: (§1) Cytotoxicity against human HL60 cells assessed as reduction in cell viability

[3] = system: A549; test: Cytotoxicity against human A549 cells assessed as reduction in cell viability; assay type: functional, cell-based
[4] = biological target: Heat shock protein HSP 90-alpha (Homo sapiens, UniProt P07900); test: Inhibition of HSP90alpha (unknown origin)
[5] = system: MCF7; test: cells; details: Homo sapiens
[6] = system: Bacillus amyloliquefaciens; test: Antibacterial activity against Bacillus amyloliquefaciens; assay type: functional
[7] = system: Staphylococcus aureus; test: Antibacterial activity against Staphylococcus aureus; assay type: functional
[8] = system: K562; test: Cytotoxicity against human K562 cells assessed as reduction in cell viability; assay type: functional, cell-based
[9] = system: MCF7
[10] = system: HL-60
Description: as §1

[11] = Cytotoxicity against African green monkey Vero cells assessed as reduction in cell viability; assay type: cell-based; details: chlorocebus sabaeus
[12] = system: Human alphaherpesvirus 1; test: Antiviral activity against HSV-1 by plaque reduction assay; assay type: functional, organism-based
[13] = Homo sapiens, K562, read-out: IC50

Structure (SMILES)	MIC [1] [µg/mL]	IC50 [2] [µM]	IC50 [3] [µM]	IC50 ([4]; read-out: IC50) [µM]	IC50 [5] [µM]	MIC [6] [µg/mL]	MIC [7] [µg/mL]	IC50 [8, 13] [µM]	IC50 [9]	IC50 ([8]; k562)	IC50 [10]	IC50 [4]	CC50 [11] [µM]	MNTC ([11]; read-out: MNCC) [µM]	IC50 [12] [µM]
CO[C@H]1/C=C\C=C(/C)C(=O)NC2=CC(=O)C(O)=C(C[C@@H](C)C[C@H](OC)[C@H](O)[C@@H](C)/C=C(\C)[C@@H]1OC(N)=O)C2=O	> 200	36	7.7	4.1	9.9	> 200	> 200	4.8							
CO[C@H]1C[C@H](C)Cc2cc(cc(O)c2O)NC(=O)/C(C)=C/CC[C@H](OC)[C@@H](OC(N)=O)/C(C)=C/[C@H](C)[C@H]1O	> 200		> 50	0.03		> 200	> 200		Not Active	Not Active	Not Active				
COc1c(O)cc2c3c1C[C@@H](C)C[C@H](OC)[C@H](O3)[C@@H](C)/C=C(\C)[C@H](OC(N)=O)[C@@H](OC)/C=C/C=C(\C)C(=O)N2	> 200	35	37		36	> 200	> 200	43				Not Active			
CC[C@H]1/C=C/[C@@H]([C@H](C)O)OC(=O)/C(C)=C/CC(=O)Nc2cc(O)cc3c2O[C@@]2(CC1)CC(=O)[C@@H](C)[C@H]3O2													510	160	19
COc1c(O)cc2c3c1C[C@@H](C)C[C@H](OC)[C@H](O3)[C@@H](C)/C=C(\C)[C@H](OC(N)=O)[C@@H](OC)CC/C=C(\C)C(=O)N2	> 200	86	65		70	> 200	> 200	43				Not Active			
COc1c(O)cc2c3c1C[C@@H](C)C[C@H](OC)[C@H](O3)[C@@H](C)/C=C(\C)[C@H](OC(N)=O)[C@@H](OC)C[C@@H](O)/C=C(\C)C(=O)N2	> 200		> 100	96	> 100	100 (≈ 178 µM)	50 (≈ 88.9 µM)	> 100			Not Active				
COc1c(O)cc2c3c1C[C@@H](C)C[C@H](OC)[C@H](O3)[C@@H](C)/C=C(\C)[C@H](OC(N)=O)[C@@H](OC)/C=C\C=C(\C)C(=O)N2	> 200	48	13		35	> 200	> 200	18				Not Active			
COc1c(O)cc2c3c1C[C@@H](C)C[C@H](OC)[C@H](O3)[C@@H](C)/C=C(\C)[C@H](OC(N)=O)[C@@H](OC)/C=C\C=C(/C)C(=O)N2	> 200	27	16		20	> 200	> 200	14				Not Active			
COC1=C2C[C@@H](C)C[C@H](OC)[C@H](O)[C@@H](C)/C=C(\C)[C@H](OC(N)=O)[C@@H](OC)/C=C\C=C(/C)C(=O)NC(=CC1=O)C2=O [GELDANAMYCIN]	> 200					> 200	> 200								
CO[C@H]1/C=C\C=C(/C)C(=O)NC2=CC(=O)C=C(C2=O)[C@H](OC)[C@@H](C)C[C@H](OC)[C@H](O)[C@@H](C)/C=C(\C)[C@@H]1OC(N)=O [HERBIMYCIN C]	> 200	56	19	31	20	100 (≈ 178 µM)	50 (≈ 89.2 µM)	20							
CC(=O)O[C@H]1C(=O)[C@@]2(C)[C@H]([C@H](OC(=O)c3ccccc3)[C@]3(O)C[C@H](OC(=O)[C@H](O)[C@@H](NC(=O)c4ccccc4)c4ccccc4)C(C)=C1C3(C)C)[C@]1(OC(C)=O)CO[C@@H]1C[C@@H]2O [PACLITAXEL]												Not Active			
COc1c(O)cc2cc1C[C@@H](C)C[C@H](OC)[C@H](O)[C@@H](C)/C=C(\C)[C@H](OC(N)=O)[C@@H](OC)CC/C=C(\C)C(=O)N2 [REBLASTATIN]	> 200		0.7	0.005		> 200	> 200		Not Active		Not Active				
